The values that follow come from patent publication US11939324B2, “Compounds for the treatment of epilepsy, neurodegenerative disorders and other CNS disorders” (reMYND N.V., priority 2017, dated 2024).

Test [1] concerns M17-TAU P301L cells. Kind of test: TAU-induced toxicity: LDH leakage of retinoic acid incubated M17-TAU P301L cells. To be noted: Homo sapiens; reduction of LDH activity of retinoic acid incubated M17-TAU P301L cells; read-out: EC50 (μg/ml) TAU-induced toxicity. It is filed as cell-based, human. From the text: A TAU expression plasmid was constructed by sub-cloning the cDNA of human TAU-P301L (encoding for TAU with proline 301 substituted by a leucine residue) into mammalian expression vector pcDNA3.1 resulting in plasmid pcDNA3.1-TAU P301L. Plasmids pcDNA3.1 and pcDNA3.1-TAU P301L were transfected to human neuroblastoma cells ([…]; ATCC No. CRL-2267) and independent clonal lines with the plasmids stably integrated into the genome were selected. […] Expression of the TAU P301L genes in the cell lines was confirmed by Western analysis.
In degenerated or dead cells lactate dehydrogenase (LDH) leaks out of the cells into the extracellular environment due to a loss of plasma-membrane integrity. This principle was used to determine cytotoxicity by quantifying the level of leaked LDH into the growth medium relative to the sum of total LDH activity from living cells and dead cells.
The detailed method for determining cytotoxicity was as follows: From appropriate precultures of M17-3.1 and M17-TAU(P301L) cells were seeded at 2500 cells/cm2 in Optimem Reduced Serum without phenol red (Gibco, Cat. 31985-047) supplemented with 1% fetal calf serum, 1 mM sodium pyruvate, 1× non-essential amino acids, 500 μg/ml G418 0.5× antibiotic/antimycotic. After 3 hours of incubation at 37° C./5% CO2 1 volume of Optimem Reduced Serum (same as described above; except without fetal calf serum) supplemented with 2.5 μM all-trans retinoic acid (ATRA) was added. The cells were further incubated for 7 days. Subsequently, LDH activity was determined using Promega Cytotox 96 Non-Radioactive cytotoxicity assay, (Cat. G1780) according the supplier's instructions.
The M17-TAU P301L cell line made it possible to assess the ability of novel compounds to counteract TAU cytotoxicity. […] These measurements were used to calculate EC50 values.
Exemplary compounds of the present invention are shown in Table 1, with their chemical structure and their EC50 value (expressed in μg/ml) as determined from example 12 in the TAU-induced toxicity experiment.
A general note: LDH in the medium is a marker of cell lysis.

The test system of test [2] is primary rat hippocampal neurons. Description: Ex-vivo inhibition of oligomeric amyloid beta (ADDL) toxicity in primary neurons. In kind it is cell-based. To be noted: 100 ng/mL, 1000 nM ADDL, 24 h, FIG. 4. How it is done:
An exemplary compound of this invention was tested for its ability to inhibit toxicity elicited by oligomeric amyloid beta (Aβo). Neurons from rat embryos were harvested and cultured using standard methods (such as used in Schlager et al., 2014. Cell reports, 8(5), pp. 1248-56.). Differentiated neurons were challenged with Apo and viability was quantified.
At day in-vitro 19 days after isolation primary hippocampal neurons were transfected with Marcks-GFP in order to visualize the neurons with fluorescence microscopy.
ADDL (Abeta-derived diffusible ligands) preparation (representing Aβo) was done according to Klein (Klein, 2002. Neurochemistry international, 41(5), pp. 345-52.). Abeta 1-42 was purchased from AnaSpec Inc. and dissolved in HFIP to homogenize the peptide. HFIP was then evaporated in a speedvac and Abeta film was dried at −20° C. overnight over desiccant. Abeta film was then resolubilised in 100% DMSO and further diluted (1/25) in Ham's F12 medium. […]
The solution was centrifuged at 14.000×g for 10 min at 4° C. and supernatants were transferred to fresh tubes and protein concentration determined by NanoDrop®.
At day in-vitro 21 primary rat hippocampal neurons were treated with equal volume of Blank/ADDL solution amounting to 0 and 1000 nM ADDL. […] Viability was assessed using the Live-Dead assay from Thermo Fisher Catalog number: L3224. […]

In test [3] the test system is M17-TAU P301L cells. Kind of test: Cytosolic calcium (Fura-2) in M17-TAU P301L cell model of calcium dyshomeostasis. In kind it is cell-based. To be noted: Homo sapiens, Fura-2 340/380 nm ratio, read-out: EC50 value of lowering cytosolic Ca^2+. How it is done:
Cystosic calcium was measured by loading the cells with a medium containing Fura-2 AM (Sigma-Aldrich), a cell permeable fluorescent probe for Ca^2+. Fura-2-AM was dissolved in DMSO plus 20% Pluronic Acid (F-127) (Invitrogen) in a 1:1 ratio and diluted in medium to a final concentration of 0.5 μM. To this loading medium probenecid (Sigma-Aldrich) was added to a final concentration of 2.5 mM. Then, culture medium was replaced by loading medium and after incubation for 1 hour at 37° C. cells were washed twice and replaced with HBSS (Gibco) supplemented with 0.2% FBS and 0.02M HEPES. Next, changes in cytosolic calcium were measured using a FlexStation 3 microplate reader (Molecular Devices) and quantified ratiometric, by calculating changes in the amount of cytosolic Ca^2+ bound Fura-2 (fluorescence intensity at 340 nm) relative to the amount of Ca^2+ unbound Fura-2 (fluorescence intensity at 380 nm). Data was processed in SoftMax Pro 5.4.6 software (Molecular Devices).
In addition compounds were tested to lower the elevated cytosolic calcium levels. In the presence of the compounds these cytosolic calcium levels were decreased.
Compounds were tested to lower the elevated cytosolic Ca^2+ levels in the cell model of calcium dyshomeostasis (FIG. 1B) as described in example 10.
Exemplary compounds of the present invention are shown in Table 2, with their chemical structure and their EC50 value of lowering cytosolic Ca^2+ (expressed in μg/ml).

In brackets after ≈: the same amount, converted by molar mass.

For the molecule `O=C(NCCc1c[nH]c2ccc(F)cc12)c1cc(Cc2cc(F)ccc2F)on1` [Compound 6], the EC50 in test [1] stood at 0.0034 µg/mL (≈ 8.51 nM); in test [3], 2.4 ng/mL. Besides, the “neuronal viability after Aβo challenge” value in test [2] was “strongly rescued”.
